The target of series [1] is T1, Heat shock protein HSP 90-alpha (Homo sapiens, UniProt P07900). As to the kind of experiment: Binding affinity to recombinant Hsp90 alpha (unknown origin) by surface plasmon resonance.
Series [2] concerns the target T1, Heat shock protein HSP 90-alpha. As to the kind of experiment: Inhibition of Hsp90 alpha in human HeLa cells assessed as reduction in ERK1/ERK2 level at 50 uM after 24 hrs by Western blot analysis. It counts as cell-based.
For series [3] the target is unchanged. As to the kind of experiment: Inhibition of Hsp90 alpha (unknown origin) ATPase activity after 60 mins by fluorimetry.
Series [4] has as its system HeLa. As to the kind of experiment: Increase in Hsp70 level in human HeLa cells at 50 uM after 24 hrs by Western blot analysis. In kind it is functional, cell-based.
For series [5], the target named is T1, Heat shock protein HSP 90-alpha. As to the kind of experiment: Inhibition of Hsp90 alpha in human HeLa cells assessed as reduction in p-AKT level at 50 uM after 24 hrs by Western blot analysis. It counts as cell-based.
Series [6] has the same target. As to the kind of experiment: Inhibition of Hsp90 alpha (unknown origin) assessed as thermal-induced citrate synthase aggregation at 0.3 uM by fluorimetry relative to control.
The target is the same in series [7]. As to the kind of experiment: Inhibition of Hsp90 alpha (unknown origin) assessed as thermal-induced citrate synthase aggregation at 4 fold molar excess by fluorimetry.
Series [8] relates to HeLa. As to the kind of experiment: Cytotoxicity against human HeLa cells assessed as cell viability up to 100 uM after 24 hrs by MTT assay. It counts as cell-based.

The source made the active and inactive calls. The calls are words filed in the database; no cut-off is given here.

`O=C(OC[C@H]1O[C@@H](O[C@@H]2C[C@@]3(O)CO[C@H]4OCC[C@@H]2[C@H]43)[C@H](O)[C@@H](O)[C@@H]1O)c1ccc(O)cc1`: the Kd entry in series [1] was “Not Active”.
As for `O=C(O[C@@H]1C[C@@](O)(CO)[C@H]2[C@H](O[C@@H]3O[C@H](CO)[C@@H](O)[C@H](O)[C@H]3O)OC=C[C@H]21)c1ccc(O)cc1`, the dissociation constant Kd in series [1] (read-out: Kd) is 31 nM.
For `CO[C@H]1C[C@@H]2[C@@H]3[C@@H](OC[C@]3(O)C[C@H]2OC(=O)c2ccc(O)cc2)O1`, the dissociation constant (Kd) entry in series [1] is listed as “Not Active”.
In the case of `COc1cc(/C=C/C(=O)O[C@H]2[C@@H]3C=CO[C@@H](O[C@@H]4O[C@H](CO)[C@@H](O)[C@H](O)[C@H]4O)[C@@H]3[C@@]3(CO)O[C@@H]23)ccc1O`, the dissociation constant Kd entry in series [1] is given as “Not Active”.
Consider `O[C@@H]1C[C@@]2(O)CO[C@H]3OCC[C@@H]1[C@H]32`, for which the dissociation constant Kd result in series [1] is “Not Active”.
Same read-out and setting: for `O=C(O[C@@H]1C=C(CO)[C@@H]2[C@H](O[C@@H]3O[C@H](CO)[C@@H](O)[C@H](O)[C@H]3O)OC=C[C@@H]21)c1ccc(O)cc1` the value was “Not Active”; for `COc1cc(/C=C/C(=O)O[C@@H]2C[C@@](O)(CO)[C@H]3[C@H](O[C@@H]4O[C@H](CO)[C@@H](O)[C@H](O)[C@H]4O)OC=C[C@H]32)ccc1O`, “Not Active”.
As for `O=C(/C=C\c1ccc(O)cc1)O[C@@H]1C[C@@](O)(CO)[C@H]2[C@H](O[C@@H]3O[C@H](CO)[C@@H](O)[C@H](O)[C@H]3O)OC=C[C@H]21`, the dissociation constant (Kd) in series [1] (read-out: Kd) stood at 73 nM.
Turning to `O=C(O[C@@H]1C[C@@]2(O)CO[C@@H]3CC1C2[C@H](O[C@@H]1O[C@H](CO)[C@@H](O)[C@H](O)[C@H]1O)O3)c1ccc(O)cc1`, the Kd result in series [1] is listed as “Not Active”.
Turning to `O=C(O[C@H]1[C@@H]2CCO[C@@H](O[C@@H]3O[C@H](CO)[C@@H](O)[C@H](O)[C@H]3O)[C@@H]2[C@@]2(CO)O[C@@H]12)c1ccc(O)cc1`, the Kd in series [1] (read-out: Kd) is 16 nM.
For the compound `O=C(OC[C@H]1O[C@@H](O[C@@H]2OC=C[C@@H]3[C@H]2[C@](O)(CO)C[C@H]3OC(=O)c2ccc(O)cc2)[C@H](O)[C@@H](O)[C@@H]1O)c1ccc(O)cc1`, in series [1] (read-out: Kd), the Kd amounted to 139 nM.
`COc1ccc(C=CC(=O)O[C@@H]2C[C@@](O)(CO)[C@H]3[C@H](O[C@@H]4O[C@H](CO)[C@@H](O)[C@H](O)[C@H]4O)OC=C[C@H]32)cc1O` (mixture of isomers): in series [1], the dissociation constant Kd entry is “Not Active”.
On to `O=C(C=Cc1ccc(O)cc1)O[C@@H]1C[C@@](O)(CO)[C@H]2[C@H](O[C@@H]3O[C@H](CO)[C@@H](O)[C@H](O)[C@H]3O)OC=C[C@H]21` (mixture of isomers), for which the Kd result in series [1] is “Not Active”.
The same measure, in the same setting: with `COc1ccc(C=CC(=O)O[C@@H]2C[C@@](O)(CO)[C@H]3[C@H](O[C@@H]4O[C@H](CO)[C@@H](O)[C@H](O)[C@H]4O)OC=C[C@H]32)cc1` (mixture of isomers) the entry was “Not Active”.
The same measure, in the same setting: for `C[C@H]1[C@H]2[C@H](O[C@@H]3O[C@H](CO)[C@@H](O)[C@H](O)[C@H]3O)OC[C@](C)(O)[C@H]2C[C@@H]1O` [ADENOSMOSIDE] the value was “Not Active”.
On to `O=C(O[C@H]1[C@@H]2C=CO[C@@H](O[C@@H]3O[C@H](CO)[C@@H](O)[C@H](O)[C@H]3O)[C@@H]2[C@@]2(CO)O[C@@H]12)[C@H]1[C@H](C(=O)O[C@H]2[C@@H]3C=CO[C@@H](O[C@@H]4O[C@H](CO)[C@@H](O)[C@H](O)[C@H]4O)[C@@H]3[C@@]3(CO)O[C@@H]23)[C@@H](c2ccc(O)cc2)[C@@H]1c1ccc(O)cc1` [ARGENTEOSIDE A], for which, in series [1] (read-out: Kd), the dissociation constant Kd amounted to 14 nM. The inhibition entry in series [2], in series [5], in series [6] and in series [7] was “Active” in each case. Further, the inhibition result in series [3] is “Dose-dependent effect”. In series [4], the result was inactive. The Activity result in series [8] is “Non-toxic”.
For the compound `O=C(O[C@H]1[C@@H]2C=CO[C@@H](O[C@@H]3O[C@H](CO)[C@@H](O)[C@H](O)[C@H]3O)[C@@H]2[C@@]2(CO)O[C@@H]12)[C@H]1[C@H](c2ccc(O)cc2)[C@H](C(=O)O[C@H]2[C@@H]3C=CO[C@@H](O[C@@H]4O[C@H](CO)[C@@H](O)[C@H](O)[C@H]4O)[C@@H]3[C@@]3(CO)O[C@@H]23)[C@H]1c1ccc(O)cc1` [ARGENTEOSIDE B], the Kd in series [1] (read-out: Kd) was 50 nM. Also, the inhibition result in series [3] is “Dose-dependent effect”.
For `O=C(O[C@@H]1C[C@@]2(O)CO[C@H]3O[C@H](O)C[C@@H]1[C@H]32)c1ccc(O)cc1` [CATALPIN], in series [1] (read-out: Kd), the Kd was 5920 nM.
As for `O=C(O[C@H]1[C@@H]2C=CO[C@@H](O[C@@H]3O[C@H](CO)[C@@H](O)[C@H](O)[C@H]3O)[C@@H]2[C@@]2(CO)O[C@@H]12)c1ccc(O)cc1` [CATALPOSIDE], the Kd in series [1] (read-out: Kd) was determined as 12 nM. Moreover, the inhibition result in series [3] is “Dose-dependent effect”.
With `COc1cc(C(=O)O[C@H]2[C@@H]3C=CO[C@@H](O[C@@H]4O[C@H](CO)[C@@H](O)[C@H](O)[C@H]4O)[C@@H]3[C@@]3(CO)O[C@@H]23)ccc1O` [PICROSIDE II], in series [1], the Kd result is given as “Not Active”.
In the case of `O[C@H]1[C@@H]2CCO[C@@H]3OC[C@@](O)([C@@H]32)[C@@H]1O` [REHMAGLUTIN A], in series [1] (read-out: Kd), the Kd came out at 2390 nM.
With `C=C[C@H]1[C@H](O[C@@H]2O[C@H](CO)[C@@H](O)[C@H](O)[C@H]2O)OC=C(C(=O)OC)[C@H]1CC=O` [SECOLOGANIN], in series [1], the dissociation constant (Kd) entry is listed as “Not Active”.
`O=C(/C=C/c1ccc(O)cc1)O[C@H]1[C@@H]2C=CO[C@@H](O[C@@H]3O[C@H](CO)[C@@H](O)[C@H](O)[C@H]3O)[C@@H]2[C@@]2(CO)O[C@@H]12` [SPECIOSIDE]: the Kd in series [1] (read-out: Kd) is 26 nM. Moreover, the inhibition entry in series [3] was “Dose-dependent effect”.
Consider `O=C(/C=C/c1ccc(O)cc1)O[C@H]1[C@@H]2C=CO[C@@H](O[C@@H]3O[C@H](CO)[C@@H](O)[C@H](O)[C@H]3O)[C@@H]2[C@@](O)(CO)[C@@H]1O` [STEREOSPERMOSIDE], for which the Kd result in series [1] was “Not Active”.
Regarding `C=C[C@H]1[C@H](O[C@@H]2O[C@H](CO)[C@@H](O)[C@H](O)[C@H]2O)OC=C2C(=O)OCC[C@H]21` [SWEROSIDE], the Kd entry in series [1] is “Not Active”.
On to `O=C(/C=C/c1ccc(O)c(O)c1)O[C@@H]1C2C=CO[C@H](O[C@@H]3O[C@H](CO)[C@@H](O)[C@H](O)[C@H]3O)C2[C@]2(CO)O[C@H]12` (stereo partly specified) [VERMINOSIDE], for which, in series [1] (read-out: Kd), the Kd turned out to be 348 nM.

The values are drawn from ChEMBL document CHEMBL2331154 (J Med Chem, 2013).
